Measurements taken from patent publication US20240109865A1, “INDAZOLE COMPOUNDS AS KINASE INHIBITORS” (TYRA BIOSCIENCES, INC., priority 2020, published 2024).

Experiments:
Test in all cases: Kinase assay, binding constants (Kd), kinase-tagged T7 phage, qPCR
[1] = biological target: FGFR1 (Homo sapiens (Human), UniProt P11362)
Description: (§1) Kinase-tagged T7 phage strains were prepared in an E. coli host derived from the BL21 strain. E. coli were grown to log-phase and infected with T7 phage and incubated with shaking at 32° C. until lysis. The lysates were centrifuged and filtered to remove cell debris. Streptavidin-coated magnetic beads were treated with biotinylated small molecule ligands for 30 minutes at room temperature to generate affinity resins for kinase assays. The liganded beads were blocked with excess biotin and washed with blocking buffer SeaBlock (Pierce), […], 1 mM DTT to remove unbound ligand and to reduce non-specific binding.
(§2) Test compounds were prepared as 111λ stocks in 10000 DMS0. Kds were determined using an 11-point 3-fold compound dilution series with three DMSO control points. […] The compounds were then diluted directly into the assays such that the final concentration of DMSO was 0.9%. All reactions performed in polypropylene 384-well plate. Each was a final volume of 0.02 ml. […] The beads were then re-suspended in elution buffer (1×PBS, 0.05% Tween […] non-biotinylated affinity ligand) and incubated at room temperature with shaking for 30 minutes. The kinase concentration in the eluates was measured by qPCR.
(§3) Binding constants were calculated with a standard dose-response curve using the Hill equation: […]
(§4) The Hill Slope was set to −1. Curves were fitted using a non-linear least square fit with the Levenberg-Marquardt algorithm.

[2] = biological target: FGFR2 (Homo sapiens (Human), UniProt P21802)
Description: as §1, §2, §3, §4

[3] = biological target: FGFR3 (Homo sapiens (Human), UniProt P22607)
Description: as §1, §2, §3, §4

[4] = biological target: FGFR3 (V555M) (Homo sapiens (Human), UniProt P22607, V555M); settings: V555M mutant
Description: as §1, §2, §3, §4

[5] = biological target: FGFR4 (Homo sapiens (Human), UniProt P22455)
Description: as §1, §2, §3, §4

Sequence of FGFR1 (P11362 22-822): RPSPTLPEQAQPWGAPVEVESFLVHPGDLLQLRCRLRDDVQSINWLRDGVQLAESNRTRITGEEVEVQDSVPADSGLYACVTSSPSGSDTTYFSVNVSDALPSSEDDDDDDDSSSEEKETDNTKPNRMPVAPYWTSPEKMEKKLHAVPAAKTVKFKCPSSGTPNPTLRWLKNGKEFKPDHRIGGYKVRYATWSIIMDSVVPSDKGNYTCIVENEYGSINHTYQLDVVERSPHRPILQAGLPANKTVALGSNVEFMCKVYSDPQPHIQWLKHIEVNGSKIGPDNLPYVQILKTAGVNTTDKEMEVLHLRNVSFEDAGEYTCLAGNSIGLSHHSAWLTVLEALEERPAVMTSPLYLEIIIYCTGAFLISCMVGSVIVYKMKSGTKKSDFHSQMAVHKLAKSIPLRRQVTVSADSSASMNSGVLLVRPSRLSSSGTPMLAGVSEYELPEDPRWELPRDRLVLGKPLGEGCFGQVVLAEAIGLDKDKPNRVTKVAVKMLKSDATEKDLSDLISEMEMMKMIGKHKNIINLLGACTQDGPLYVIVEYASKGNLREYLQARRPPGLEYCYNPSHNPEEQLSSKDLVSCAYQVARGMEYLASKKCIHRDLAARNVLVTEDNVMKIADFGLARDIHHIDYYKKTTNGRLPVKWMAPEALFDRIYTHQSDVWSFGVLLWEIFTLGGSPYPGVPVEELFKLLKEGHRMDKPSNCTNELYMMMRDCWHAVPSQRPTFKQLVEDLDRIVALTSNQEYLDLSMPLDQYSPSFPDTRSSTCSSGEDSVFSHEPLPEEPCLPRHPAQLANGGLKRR
Sequence of FGFR4 (P22455 22-802): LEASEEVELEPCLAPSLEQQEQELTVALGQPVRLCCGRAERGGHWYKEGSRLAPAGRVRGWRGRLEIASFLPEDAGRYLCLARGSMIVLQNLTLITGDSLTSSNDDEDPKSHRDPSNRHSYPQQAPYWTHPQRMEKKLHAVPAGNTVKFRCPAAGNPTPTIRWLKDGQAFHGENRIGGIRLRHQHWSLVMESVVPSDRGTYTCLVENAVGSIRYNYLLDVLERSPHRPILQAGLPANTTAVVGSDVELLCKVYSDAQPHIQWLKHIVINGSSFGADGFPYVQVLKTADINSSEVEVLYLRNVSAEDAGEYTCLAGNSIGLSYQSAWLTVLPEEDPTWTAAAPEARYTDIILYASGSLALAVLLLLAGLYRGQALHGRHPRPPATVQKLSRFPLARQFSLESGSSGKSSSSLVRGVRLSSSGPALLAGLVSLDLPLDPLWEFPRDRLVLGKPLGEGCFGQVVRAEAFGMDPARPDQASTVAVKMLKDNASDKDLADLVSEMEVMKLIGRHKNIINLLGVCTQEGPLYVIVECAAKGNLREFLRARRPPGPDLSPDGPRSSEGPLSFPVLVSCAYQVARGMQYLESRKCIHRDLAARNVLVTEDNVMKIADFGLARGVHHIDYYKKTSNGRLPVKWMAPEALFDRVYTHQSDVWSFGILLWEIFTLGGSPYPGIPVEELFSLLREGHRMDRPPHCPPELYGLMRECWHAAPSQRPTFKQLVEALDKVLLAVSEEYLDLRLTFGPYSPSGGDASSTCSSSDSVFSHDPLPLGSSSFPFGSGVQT
Sequence of FGFR2 (P21802 22-821): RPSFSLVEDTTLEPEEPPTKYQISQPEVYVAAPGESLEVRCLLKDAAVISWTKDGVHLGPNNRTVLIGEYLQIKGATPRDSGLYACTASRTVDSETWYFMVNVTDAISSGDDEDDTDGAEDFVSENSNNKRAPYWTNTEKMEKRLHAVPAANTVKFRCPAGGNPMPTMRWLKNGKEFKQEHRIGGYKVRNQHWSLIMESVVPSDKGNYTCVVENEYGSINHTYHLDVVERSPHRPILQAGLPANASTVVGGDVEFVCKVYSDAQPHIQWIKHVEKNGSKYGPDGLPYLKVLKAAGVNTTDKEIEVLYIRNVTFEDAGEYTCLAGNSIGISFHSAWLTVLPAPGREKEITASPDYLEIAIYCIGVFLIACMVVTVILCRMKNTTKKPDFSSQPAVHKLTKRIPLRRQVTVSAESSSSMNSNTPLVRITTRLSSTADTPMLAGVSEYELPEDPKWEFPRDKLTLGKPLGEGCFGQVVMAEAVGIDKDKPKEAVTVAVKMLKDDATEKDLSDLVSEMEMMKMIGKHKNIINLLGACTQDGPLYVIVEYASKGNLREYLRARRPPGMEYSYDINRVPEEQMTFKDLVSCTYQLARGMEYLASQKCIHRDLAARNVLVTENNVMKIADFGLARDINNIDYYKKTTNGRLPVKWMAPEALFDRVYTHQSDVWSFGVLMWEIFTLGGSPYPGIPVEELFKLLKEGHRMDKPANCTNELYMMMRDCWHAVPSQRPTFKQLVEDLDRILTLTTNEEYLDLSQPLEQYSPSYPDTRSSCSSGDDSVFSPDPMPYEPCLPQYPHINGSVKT
Sequence of FGFR3 (V555M) (P22607 23-806 V555M): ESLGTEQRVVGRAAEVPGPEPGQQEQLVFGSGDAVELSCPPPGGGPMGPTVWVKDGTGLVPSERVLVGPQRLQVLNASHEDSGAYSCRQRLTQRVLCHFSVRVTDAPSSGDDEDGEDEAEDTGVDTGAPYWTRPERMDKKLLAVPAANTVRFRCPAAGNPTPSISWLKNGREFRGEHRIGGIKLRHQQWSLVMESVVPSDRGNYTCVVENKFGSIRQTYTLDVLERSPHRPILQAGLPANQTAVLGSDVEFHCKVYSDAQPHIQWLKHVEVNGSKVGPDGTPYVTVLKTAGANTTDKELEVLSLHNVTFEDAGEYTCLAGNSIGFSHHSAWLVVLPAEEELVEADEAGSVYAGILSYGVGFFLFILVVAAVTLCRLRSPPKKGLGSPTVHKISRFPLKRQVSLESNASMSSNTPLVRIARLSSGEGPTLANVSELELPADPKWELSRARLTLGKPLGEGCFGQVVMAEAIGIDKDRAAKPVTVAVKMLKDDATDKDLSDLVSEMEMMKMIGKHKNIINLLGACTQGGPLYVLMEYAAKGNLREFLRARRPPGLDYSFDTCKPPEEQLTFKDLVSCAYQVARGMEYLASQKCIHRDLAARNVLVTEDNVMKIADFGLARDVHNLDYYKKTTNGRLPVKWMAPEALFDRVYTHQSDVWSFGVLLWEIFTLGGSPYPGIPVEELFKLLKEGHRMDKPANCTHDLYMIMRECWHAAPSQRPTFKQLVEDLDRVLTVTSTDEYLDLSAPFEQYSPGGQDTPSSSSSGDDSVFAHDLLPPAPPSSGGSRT
Sequence of FGFR3 (P22607 23-806): as the sequence (P22607 23-806 V555M) above, with M533V counted along it

Row | SMILES | Kd [1] [nM] | Kd [2] [nM] | Kd [3] [nM] | Kd [4] [nM] | Kd [5] [nM]
1 | Cc1cnnc(C)c1[C@H](C)Oc1ccc2[nH]nc(-c3cnc(N4CCC5(CC4)CCS(=O)(=O)C5)nc3)c2c1 [Example 154, 8-[5-[5-[(1S)-1-(3,5-dimethylpyridazin-4-yl)ethoxy]-1H-indazol-3-yl]pyrimidin-2-yl]-2λ^6-thia-8-azaspiro[4.5]decane 2,2-dioxide] | > 300 | > 300 | 100 to 300 | 20 to 100 | 100 to 300
2 | Cc1cnnc(C)c1[C@H](C)Oc1ccc2[nH]nc(-c3cnc(N4CC5(C4)CN(S(C)(=O)=O)C5)nc3)c2c1 [Example 155, 5-[(1S)-1-(3,5-dimethylpyridazin-4-yl)ethoxy]-3-[2-(2-methylsulfonyl-2,6-diazaspiro[3.3]heptan-6-yl)pyrimidin-5-yl]-1H-indazole] | > 300 | > 300 | > 300 | > 300 | 100 to 300
3 | Cc1cnnc(C)c1[C@@H](C)Oc1ccc2[nH]nc(-c3cnc(N4CC5(C4)CN(S(C)(=O)=O)C5)nc3)c2c1 [Example 156, 5-[(1R)-1-(3,5-dimethylpyridazin-4-yl)ethoxy]-3-[2-(2-methylsulfonyl-2,6-diazaspiro[3.3]heptan-6-yl)pyrimidin-5-yl]-1H-indazole] | 100 to 300 | 20 to 100 | 1 to 20 | 1 to 20 | 1 to 20
4 | C[C@@H](Oc1ccc2[nH]nc(-c3cnn(C4CCN(C5CCC5)CC4)c3)c2c1)c1cc(F)cc(F)c1 [Example 167, 3-[1-(1-cyclobutyl-4-piperidyl)pyrazol-4-yl]-5-[(1R)-1-(3,5-difluorophenyl)ethoxy]-1H-indazole] | 20 to 100 | 20 to 100 | 20 to 100 | 1 to 20 | > 300
5 | C[C@@H](Oc1ccc2[nH]nc(-c3ccc(N4CC5(CNC5)C4)nc3)c2c1)c1cc(F)cc(F)c1 [Example 169, 3-[6-(2,6-diazaspiro[3.3]heptan-2-yl)-3-pyridyl]-5-[(1R)-1-(3,5-difluorophenyl)ethoxy]-1H-indazole] | 20 to 100 | 20 to 100 | 1 to 20 | 1 to 20 | 20 to 100
6 | C[C@@H](Oc1ccc2[nH]nc(-c3cnn(C4CCS(=O)(=O)CC4)c3)c2c1)c1cc(F)cc(F)c1 [Example 171, 4-[4-[5-[(1R)-1-(3,5-difluorophenyl)ethoxy]-1H-indazol-3-yl]pyrazol-1-yl]thiane 1,1-dioxide] | 100 to 300 | 20 to 100 | 20 to 100 | 1 to 20 | > 300
7 | C[C@@H](Oc1ccc2[nH]nc(-c3ccc(N4CC5(C4)CN(S(C)(=O)=O)C5)nc3)c2c1)c1cc(F)cc(F)c1 [Example 172, 5-[(1R)-1-(3,5-difluorophenyl)ethoxy]-3-[6-(2-methylsulfonyl-2,6-diazaspiro[3.3]heptan-6-yl)-3-pyridyl]-1H-indazole] | 100 to 300 | 20 to 100 | 1 to 20 | 1 to 20 | 20 to 100
8 | Cc1ncc(Cl)c([C@@H](C)Oc2ccc3[nH]nc(-c4cnc(N5CC6(CNC6)C5)nc4)c3c2)c1Cl [Example 179, 3-[2-(2,6-diazaspiro[3.3]heptan-2-yl)pyrimidin-5-yl]-5-[(1R)-1-(3,5-dichloro-2-methyl-4-pyridyl)ethoxy]-1H-indazole] | 20 to 100 | 20 to 100 | 1 to 20 | 1 to 20 | 1 to 20
9 | CCS(=O)(=O)N1CC2(CN(c3ncc(-c4n[nH]c5ccc(O[C@H](C)c6c(Cl)cnc(C)c6Cl)cc45)cn3)C2)C1 [Example 181, 5-[(1R)-1-(3,5-dichloro-2-methyl-4-pyridyl)ethoxy]-3-[2-(2-ethylsulfonyl-2,6-diazaspiro[3.3]heptan-6-yl)pyrimidin-5-yl]-1H-indazole] | 100 to 300 | > 300 | 1 to 20 | 1 to 20 | 1 to 20

The remaining lines, values ahead:

Row | Kd [1] [nM] | Kd [2] [nM] | Kd [3] [nM] | Kd [4] [nM] | Kd [5] [nM] | SMILES
10 | 20 to 100 | 20 to 100 | 1 to 20 | 1 to 20 | 1 to 20 | C[C@@H](Oc1ccc2[nH]nc(-c3cnc(N4CC5(CCNC5)C4)nc3)c2c1)c1c(Cl)cncc1Cl [Example 158, 3-[2-(2,7-diazaspiro[3.4]octan-2-yl)pyrimidin-5-yl]-5-[(1R)-1-(3,5-dichloro-4-pyridyl)ethoxy]-1H-indazole]
11 | 1 to 20 | 1 to 20 | 1 to 20 | 1 to 20 | 1 to 20 | C[C@@H](Oc1ccc2[nH]nc(-c3ccc(N4CC5(CCCNC5)C4)nc3)c2c1)c1c(Cl)cncc1Cl [Example 161, 3-[6-(2,8-diazaspiro[3.5]nonan-2-yl)-3-pyridyl]-5-[(1R)-1-(3,5-dichloro-4-pyridyl)ethoxy]-1H-indazole]
12 | 1 to 20 | 1 to 20 | 1 to 20 | 1 to 20 | 1 to 20 | C[C@@H](Oc1ccc2[nH]nc(-c3ccc(N4CC5(CCNC5)C4)nc3)c2c1)c1c(Cl)cncc1Cl [Example 164, 3-[6-(2,7-diazaspiro[3.4]octan-2-yl)-3-pyridyl]-5-[(1R)-1-(3,5-dichloro-4-pyridyl)ethoxy]-1H-indazole]
13 | 1 to 20 | 1 to 20 | 1 to 20 | 1 to 20 | 1 to 20 | Cc1cnnc(C)c1[C@@H](C)Oc1ccc2[nH]nc(-c3ccc(N4CCN5CCC[C@H]5C4)nc3)c2c1 [Example 174, 3-[6-[(8aS)-3,4,6,7,8,8a-hexahydro-1H-pyrrolo[1,2-a]pyrazin-2-yl]-3-pyridyl]-5-[(1R)-1-(3,5-dimethylpyridazin-4-yl)ethoxy]-1H-indazole]
14 | 1 to 20 | 1 to 20 | 1 to 20 | 1 to 20 | 1 to 20 | Cc1cnnc(C)c1[C@@H](C)Oc1ccc2[nH]nc(-c3ccc(N4CCN5CCC[C@@H]5C4)nc3)c2c1 [Example 175, 3-[6-[(8aR)-3,4,6,7,8,8a-hexahydro-1H-pyrrolo[1,2-a]pyrazin-2-yl]-3-pyridyl]-5-[(1R)-1-(3,5-dimethylpyridazin-4-yl)ethoxy]-1H-indazole]
15 | 1 to 20 | 1 to 20 | 1 to 20 | 1 to 20 | 1 to 20 | Cc1cnnc(C)c1[C@@H](C)Oc1ccc2[nH]nc(-c3ccc(N4CCN5C[C@H](O)C[C@H]5C4)nc3)c2c1 [Example 176, (7R,8aS)-2-[5-[5-[(1R)-1-(3,5-dimethylpyridazin-4-yl)ethoxy]-1H-indazol-3-yl]-2-pyridyl]-3,4,6,7,8,8a-hexahydro-1H-pyrrolo[1,2-a]pyrazin-7-ol]
16 | 1 to 20 | 20 to 100 | 1 to 20 | 1 to 20 | 1 to 20 | Cc1ncc(Cl)c([C@@H](C)Oc2ccc3[nH]nc(-c4ccc(N5CC6(CNC6)C5)nc4)c3c2)c1Cl [Example 177, 3-[6-(2,6-diazaspiro[3.3]heptan-2-yl)-3-pyridyl]-5-[(1R)-1-(3,5-dichloro-2-methyl-4-pyridyl)ethoxy]-1H-indazole]
17 | 1 to 20 | 1 to 20 | 1 to 20 | 1 to 20 | 1 to 20 | C[C@@H](Oc1ccc2[nH]nc(-c3ccc(N4CCN5C[C@H](O)C[C@H]5C4)nc3)c2c1)c1c(Cl)cncc1Cl [Example 178, (7R,8aS)-2-[5-[5-[(1R)-1-(3,5-dichloro-4-pyridyl)ethoxy]-1H-indazol-3-yl]-2-pyridyl]-3,4,6,7,8,8a-hexahydro-1H-pyrrolo[1,2-a]pyrazin-7-ol]
18 | 20 to 100 | 20 to 100 | 1 to 20 | 1 to 20 | 20 to 100 | CCS(=O)(=O)N1CC2(CN(c3ccc(-c4n[nH]c5ccc(O[C@H](C)c6c(Cl)cnc(C)c6Cl)cc45)cn3)C2)C1 [Example 180, 5-[(1R)-1-(3,5-dichloro-2-methyl-4-pyridyl)ethoxy]-3-[6-(2-ethylsulfonyl-2,6-diazaspiro[3.3]heptan-6-yl)-3-pyridyl]-1H-indazole]
19 | 20 to 100 | 1 to 20 | 1 to 20 | 1 to 20 | 1 to 20 | CCOC(=O)N1CCCC2(C1)CN(c1ccc(-c3n[nH]c4ccc(O[C@H](C)c5c(C)cnnc5C)cc34)cn1)C2 [Example 182, ethyl 2-[5-[5-[(1R)-1-(3,5-dimethylpyridazin-4-yl)ethoxy]-1H-indazol-3-yl]-2-pyridyl]-2,8-diazaspiro[3.5]nonane-8-carboxylate]
20 | 1 to 20 | 1 to 20 | 1 to 20 | 1 to 20 | 1 to 20 | C[C@@H](Oc1ccc2[nH]nc(-c3ccc(N4CCN5CCC[C@H]5C4)nc3)c2c1)c1c(Cl)cncc1Cl [Example 183, 3-[6-[(8aS)-3,4,6,7,8,8a-hexahydro-1H-pyrrolo[1,2-a]pyrazin-2-yl]-3-pyridyl]-5-[(1R)-1-(3,5-dichloro-4-pyridyl)ethoxy]-1H-indazole]
